Data: ChEMBL document CHEMBL1201862, “PubChem BioAssay data set” (2004)
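Where inhibition never reached the appropriate level, the endpoint shown equals the highest concentration tested. Otherwise, values were interpolated linearly from a five-concentration, 48-hour dose response in 96-well plates. GI50 = concentration required for 50% inhibition of growth.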 Active and inactive are the calls of the source. Cut-off read from the data, not from the text of the source: active = GI50 up to about 1.1 µM and inactive = higher.

Columns and labels:
Assay in all cases: growth of human tumour cells (NCI), 48 h
TK-10 = system: TK-10
786-0 = system: 786-0
Malme-3M = system: Malme-3M
SF-539 = system: SF-539
OVCAR-3 = system: OVCAR-3
A549 = system: A549
MOLT-4 = system: MOLT-4
NCI-H522 = system: NCI-H522
CAKI-1 = system: CAKI-1
HL-60 = system: HL-60
K562 = system: K562
LOX IMVI = system: LOX IMVI
M14 = system: M14
KM12 = system: KM12
XF498 = system: XF498
NCI-H23 = system: NCI-H23
T47D = system: T47D
MDA-N = system: MDA-N
NCI/ADR-RES = system: NCI/ADR-RES
BT-549 = system: BT-549

Row | Structure (SMILES) | GI50 (TK-10) | GI50 (786-0) | GI50 (Malme-3M) | GI50 (SF-539) | GI50 (OVCAR-3) | GI50 (A549) | GI50 (MOLT-4) | GI50 (NCI-H522) | GI50 (CAKI-1) | GI50 (HL-60) | GI50 (K562) | GI50 (LOX IMVI) | GI50 (M14) | GI50 (KM12) | GI50 (XF498) | GI50 (NCI-H23) | GI50 (T47D) | GI50 (MDA-N) | GI50 (NCI/ADR-RES) | GI50 (BT-549)
1 | COC(=O)C[C@H]1CCC2(OCCO2)[C@]1(C)C(=O)OC | > 100 µM (inactive) | > 100 µM (inactive) | > 100 µM (inactive) | > 100 µM (inactive) | > 100 µM (inactive) | > 100 µM (inactive) | > 100 µM (inactive) | > 100 µM (inactive) | > 100 µM (inactive) | > 100 µM (inactive) | > 100 µM (inactive) | > 100 µM (inactive) | > 100 µM (inactive) | > 100 µM (inactive) | > 100 µM (inactive) | > 100 µM (inactive) | – | – | – | –
2 | CN(C)CCC(=O)/C=C\c1ccccc1 | 18.5 µM (inactive) | 16.3 µM (inactive) | 17.1 µM (inactive) | 16.8 µM (inactive) | 18.2 µM (inactive) | 21.6 µM (inactive) | 13.5 µM (inactive) | 18.9 µM (inactive) | 18.3 µM (inactive) | 10.6 µM (inactive) | 13.2 µM (inactive) | 14.3 µM (inactive) | 16.7 µM (inactive) | 15 µM (inactive) | 14.9 µM (inactive) | – | – | – | – | –
3 | CC(C)(CN1CCCCC1)C(=O)/C=C/c1ccc(Br)cc1 | 3.13 µM (inactive) | 2.15 µM (inactive) | 5.74 µM (inactive) | 2.09 µM (inactive) | 2.07 µM (inactive) | 2.86 µM (inactive) | 2.28 µM (inactive) | 1.82 µM (inactive) | 0.887 µM (active) | 2.4 µM (inactive) | 2.59 µM (inactive) | 2.03 µM (inactive) | 2.29 µM (inactive) | 3 µM (inactive) | 2.05 µM (inactive) | 2.77 µM (inactive) | – | – | – | –
4 | COc1ccc(NC(=O)/C(Cc2nc3ccccc3nc2O)=N\O)c(OC)c1 | > 100 µM (inactive) | > 100 µM (inactive) | > 100 µM (inactive) | > 100 µM (inactive) | > 100 µM (inactive) | > 100 µM (inactive) | – | > 100 µM (inactive) | > 100 µM (inactive) | > 100 µM (inactive) | > 100 µM (inactive) | > 100 µM (inactive) | > 100 µM (inactive) | > 100 µM (inactive) | > 100 µM (inactive) | > 100 µM (inactive) | – | – | – | –
5 | OC1COC(n2c3ccc(Br)cc3c3ccc4c5ccccc5[nH]c4c32)C(O)C1O (stereo not drawn) | 4.28 µM (inactive) | 3.96 µM (inactive) | 3.88 µM (inactive) | 5.24 µM (inactive) | 3.37 µM (inactive) | 2.61 µM (inactive) | 3.05 µM (inactive) | 2.82 µM (inactive) | 3.13 µM (inactive) | 3.48 µM (inactive) | 2.29 µM (inactive) | 2.31 µM (inactive) | 3.12 µM (inactive) | 1.56 µM (inactive) | – | 3.02 µM (inactive) | 5.21 µM (inactive) | 4.4 µM (inactive) | 4.07 µM (inactive) | 1.1 µM (active)
6 | COc1ccc([C@@H]2CC(=O)NCCCCNCCCN2)cc1 | > 100 µM (inactive) | > 100 µM (inactive) | > 100 µM (inactive) | > 100 µM (inactive) | – | > 100 µM (inactive) | > 100 µM (inactive) | > 100 µM (inactive) | > 100 µM (inactive) | > 100 µM (inactive) | > 100 µM (inactive) | – | > 100 µM (inactive) | > 100 µM (inactive) | > 100 µM (inactive) | > 100 µM (inactive) | – | – | – | –
7 | CC[C@@H]1CC[C@@H]2[C@H](CC[C@]3(C)[C@@H](O)CC[C@@H]23)[C@H]1C(=O)O | > 100 µM (inactive) | > 100 µM (inactive) | > 100 µM (inactive) | > 100 µM (inactive) | > 100 µM (inactive) | > 100 µM (inactive) | > 100 µM (inactive) | > 100 µM (inactive) | > 100 µM (inactive) | > 100 µM (inactive) | > 100 µM (inactive) | > 100 µM (inactive) | > 100 µM (inactive) | > 100 µM (inactive) | – | > 100 µM (inactive) | > 100 µM (inactive) | > 100 µM (inactive) | > 100 µM (inactive) | > 100 µM (inactive)
8 | C=C(CS(=O)(=O)c1ccccc1)C(=O)OCC | 17.4 µM (inactive) | 17.3 µM (inactive) | 16.1 µM (inactive) | 17.1 µM (inactive) | 13.4 µM (inactive) | 18.5 µM (inactive) | 2.81 µM (inactive) | 3.41 µM (inactive) | 18 µM (inactive) | – | 5.33 µM (inactive) | 10.5 µM (inactive) | 11.6 µM (inactive) | 16.1 µM (inactive) | 19.2 µM (inactive) | 18.2 µM (inactive) | – | – | – | –
9 | CC1=NN(C(=O)CC(=O)N(C(=O)c2ccccc2Cl)c2ccc(C)cc2)C(=O)C1/N=N/c1ccc([N+](=O)[O-])cc1 (stereo not drawn) | 49.5 µM (inactive) | 29 µM (inactive) | > 100 µM (inactive) | 23.7 µM (inactive) | > 64.7 µM (inactive) | 34.1 µM (inactive) | > 100 µM (inactive) | > 100 µM (inactive) | > 100 µM (inactive) | > 51.9 µM (inactive) | > 53.5 µM (inactive) | 23.9 µM (inactive) | > 96.2 µM (inactive) | > 65.5 µM (inactive) | > 100 µM (inactive) | 47.3 µM (inactive) | – | – | – | –
10 | O=C(Cc1ccccc1)NN1C(=O)C(Cl)C1c1cc(Br)ccc1O (stereo not drawn) | 21.6 µM (inactive) | 5.89 µM (inactive) | 13.5 µM (inactive) | – | 2.56 µM (inactive) | 10.1 µM (inactive) | 1.04 µM (active) | 2.72 µM (inactive) | 13 µM (inactive) | 2.46 µM (inactive) | 3.35 µM (inactive) | 4.15 µM (inactive) | 4.34 µM (inactive) | 9.48 µM (inactive) | 7.76 µM (inactive) | 4.43 µM (inactive) | – | – | – | –
11 | Cc1nc2sccn2c1C(=O)N/N=C1\SCC(=O)N1C | > 100 µM (inactive) | > 100 µM (inactive) | > 100 µM (inactive) | > 100 µM (inactive) | > 100 µM (inactive) | > 100 µM (inactive) | > 100 µM (inactive) | > 100 µM (inactive) | > 100 µM (inactive) | > 100 µM (inactive) | > 100 µM (inactive) | > 100 µM (inactive) | – | > 100 µM (inactive) | > 100 µM (inactive) | > 100 µM (inactive) | – | – | – | –
12 | COc1ccc(C(=O)C2=NON3OC23C(=O)c2ccc(OC)cc2)cc1 (stereo not drawn) | 19.7 µM (inactive) | 3.44 µM (inactive) | 12.9 µM (inactive) | 10.3 µM (inactive) | 9.59 µM (inactive) | 22.4 µM (inactive) | 2.59 µM (inactive) | 1.82 µM (inactive) | 2.81 µM (inactive) | 2.18 µM (inactive) | 3.12 µM (inactive) | 5.58 µM (inactive) | 15.4 µM (inactive) | 19.2 µM (inactive) | 10 µM (inactive) | 13.2 µM (inactive) | – | – | – | –
13 | Cc1cc(C)c2[s+]snc2c1 | > 100 µM (inactive) | > 100 µM (inactive) | > 100 µM (inactive) | 70 µM (inactive) | 97.9 µM (inactive) | 95.1 µM (inactive) | 33.9 µM (inactive) | 31.1 µM (inactive) | 93.8 µM (inactive) | 18.3 µM (inactive) | 27.7 µM (inactive) | 37.8 µM (inactive) | 37.8 µM (inactive) | 95.7 µM (inactive) | 30 µM (inactive) | 54 µM (inactive) | – | – | – | –
14 | Oc1ccccc1-c1cnnc(-c2ccccc2O)c1 | 28.7 µM (inactive) | 17.9 µM (inactive) | 33.6 µM (inactive) | 33.9 µM (inactive) | 19 µM (inactive) | – | 18.1 µM (inactive) | 17.7 µM (inactive) | 28.6 µM (inactive) | 19.8 µM (inactive) | 7.73 µM (inactive) | 20.3 µM (inactive) | 22.2 µM (inactive) | – | 16.2 µM (inactive) | – | – | – | – | –
15 | CCOP(=O)(OCC)/C(C#N)=C\c1ccsc1 | > 100 µM (inactive) | > 100 µM (inactive) | > 100 µM (inactive) | > 100 µM (inactive) | > 100 µM (inactive) | > 100 µM (inactive) | > 100 µM (inactive) | > 100 µM (inactive) | > 100 µM (inactive) | – | – | > 100 µM (inactive) | > 100 µM (inactive) | > 100 µM (inactive) | > 100 µM (inactive) | > 100 µM (inactive) | – | – | – | –
16 | CC(C)(C)c1ccc(-c2nc3ccc(Cl)cc3c(=O)o2)cc1 | 41.3 µM (inactive) | 36.6 µM (inactive) | 16.6 µM (inactive) | 14.7 µM (inactive) | 7.78 µM (inactive) | 11.9 µM (inactive) | 16.9 µM (inactive) | 12.7 µM (inactive) | 25.4 µM (inactive) | 19.4 µM (inactive) | 15.8 µM (inactive) | 15.4 µM (inactive) | 17.9 µM (inactive) | 5.12 µM (inactive) | – | 11.4 µM (inactive) | 20.5 µM (inactive) | 25.2 µM (inactive) | 22.7 µM (inactive) | 21.2 µM (inactive)
17 | CC[C@@]1(O)C(=O)OCc2c1cc1n(c2=O)Cc2cc3c(OC)cccc3nc2-1 | 3.74 µM (inactive) | 0.211 µM (active) | 0.348 µM (active) | < 0.1 µM (active) | 0.521 µM (active) | – | 0.14 µM (active) | 0.145 µM (active) | – | < 0.01 µM (active) | 0.171 µM (active) | < 0.1 µM (active) | 0.2 µM (active) | 0.867 µM (active) | 0.0942 µM (active) | < 0.1 µM (active) | 0.0194 µM (active) | – | – | –
